14 compounds from patent US8574563B2 (Bristol-Myers Squibb Company, priority 2006, dated 2013) can be followed below.

The test system of the first assay is HCV 1b-377-neo replicon cells. The assay can be described thus: HCV replicon assay, HCV 1b-377-neo replicon cells (1b FRET). Particulars: HCV 1b-377-neo replicon cells; HCV 1b genotype. The class given is cell-based, Hepatitis C virus genotype 1b. In short, it runs like this:
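FRET-based replicon assay in HCV 1b-377-neo cells, including a comparison line carrying the NS5A Y2065H mutation that confers resistance to a reference compound.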
(A replicon is a self-replicating genome or part of one, used to study replication in cells.)
As for `CN(C)[C@@H](C(=O)N1CCC[C@H]1c1ncc(-c2ccc(-c3ccc(-c4cnc([C@@H]5CCCN5C(=O)CNC(=O)c5ccccc5)[nH]4)cc3)cc2)[nH]1)c1ccccc1` [Example 94-6, N-(2-((2S)-2-(5-(4′-(2-((2S)-1-((2R)-2-(dimethylamino)-2-phenylacetyl)-2-pyrrolidinyl)-1H-imidazol-5-yl)-4-biphenylyl)-1H-imidazol-2-yl)-1-pyrrolidinyl)-2-oxoethyl)benzamide], the “EC50 range against HCV 1b (Table 2, Range)” value is given as “C-D”.

Still in this assay, the particulars now being: HCV 1b-377-neo replicon cells; HCV 1b genotype; read-out: EC50 range against HCV 1b (Table 2, Range).
Broadly, the EC50 is the concentration giving half of the maximal effect. In the case of `COC(=O)N[C@@H](C(=O)N1CCC[C@H]1c1ncc(-c2ccc(-c3ccc(-c4cnc([C@@H]5CCCN5C(=O)Cc5ccccc5CN5CCCC5)[nH]4)cc3)cc2)[nH]1)c1ccccc1` [Example 84-86, methyl ((1R)-2-oxo-1-phenyl-2-((2S)-2-(5-(4′-(2-((2S)-1-((2-(1-pyrrolidinylmethyl)phenyl)acetyl)-2-pyrrolidinyl)-1H-imidazol-5-yl)-4-biphenylyl)-1H-imidazol-2-yl)-1-pyrrolidinyl)ethyl)carbamate], the EC50 lay in the range of 0.001 to 0.999 nM.

The assay is the same for the next values; noted with them: Hepatitis C virus, HCV 1b-377-neo replicon cells; HCV 1b genotype; read-out: EC50 range against HCV 1b (Table 2, Range).
Consider `COC(=O)N[C@@H](C(=O)N1CCC[C@H]1c1ncc(-c2ccc(-c3ccc(-c4cnc([C@@H]5CCCN5C(=O)Cc5ccccc5CN(C)C)[nH]4)cc3)cc2)[nH]1)c1ccccc1` [Example 84-87, methyl ((1R)-2-((2S)-2-(5-(4′-(2-((2S)-1-((2-((dimethylamino)methyl)phenyl)acetyl)-2-pyrrolidinyl)-1H-imidazol-5-yl)-4-biphenylyl)-1H-imidazol-2-yl)-1-pyrrolidinyl)-2-oxo-1-phenylethyl)carbamate], for which the EC50 fell in the range of 0.001 to 0.999 nM.

For the compound `CN(C)[C@@H](C(=O)N1CCC[C@H]1c1ncc(-c2ccc(-c3ccc(-c4cnc([C@@H]5CCCN5C(=O)Cc5cccnc5)[nH]4)cc3)cc2)[nH]1)c1ccccc1` [Example 85, (1R)-N,N-dimethyl-2-oxo-1-phenyl-2((2S)-2-(5-(4′-(2-((2S)-1-(3-pyridinylacetyl)-2-pyrrolidinyl)-1H-imidazol-5-yl)-4-biphenylyl)-1H-imidazol-2-yl)-1-pyrrolidinyl)ethanamine], the concentration giving a half-maximal response (EC50) fell in the range of 0.001 to 0.999 nM.

With `CN(C)[C@@H](C(=O)N1CCC[C@H]1c1ncc(-c2ccc(-c3ccc(-c4cnc([C@@H]5CCCN5C(=O)[C@H]5CCCO5)[nH]4)cc3)cc2)[nH]1)c1ccccc1` [Example 86, (1R)-N,N-dimethyl-2-oxo-1-phenyl-2-((2S)-2-(5-(4′-(2-((2S)-1-((2R)-tetrahydro-2-furanylcarbonyl)-2-pyrrolidinyl)-1H-imidazol-5-yl)-4-biphenylyl)-1H-imidazol-2-yl)-1-pyrrolidinyl)ethanamine], the EC50 was in the range of 0.001 to 0.999 nM.

Turning to `CN(C)[C@@H](C(=O)N1CCC[C@H]1c1ncc(-c2ccc(-c3ccc(-c4cnc([C@@H]5CCCN5C(=O)[C@@H]5CCCO5)[nH]4)cc3)cc2)[nH]1)c1ccccc1` [Example 87, (1R)-N,N-dimethyl-2-oxo-1-phenyl-2-((2S)-2-(5-(4′-(2-((2S)-1-((2S)-tetrahydro-2-furanylcarbonyl)-2-pyrrolidinyl)-1H-imidazol-5-yl)-4-biphenylyl)-1H-imidazol-2-yl)-1-pyrrolidinyl)ethanamine], the EC50 is 0.001 to 0.999 nM.

Consider `CN(C)[C@@H](C(=O)N1CCC[C@H]1c1ncc(-c2ccc(-c3ccc(-c4cnc([C@@H]5CCCN5C(=O)Cc5cn(C)cn5)[nH]4)cc3)cc2)[nH]1)c1ccccc1` [Example 88, (1R)-N,N-dimethyl-2-((2S)-2-(5-(4′-(2-((2S)-1-((1-methyl-1H-imidazol-4-yl)acetyl)-2-pyrrolidinyl)-1H-imidazol-5-yl)-4-biphenylyl)-1H-imidazol-2-yl)-1-pyrrolidinyl)-2-oxo-1-phenylethanamine], for which the EC50 was in the range of 0.001 to 0.999 nM.

As for `CN(C)[C@@H](C(=O)N1CCC[C@H]1c1ncc(-c2ccc(-c3ccc(-c4cnc([C@@H]5CCCN5C(=O)[C@@H](c5ccccc5)N5CCCC5)[nH]4)cc3)cc2)[nH]1)c1ccccc1` [Example 90, (1R)-N,N-dimethyl-2-oxo-1-phenyl-2-((2S)-2-(5-(4′-(2-((2S)-1-((2R)-2-phenyl-2-(1-pyrrolidinyl)acetyl)-2-pyrrolidinyl)-1H-imidazol-5-yl)-4-biphenylyl)-1H-imidazol-2-yl)-1-pyrrolidinyl)ethanamine], the EC50 was 0.001 to 0.999 nM.

For the compound `COC(=O)N[C@@H](C)C(=O)N1CCC[C@H]1c1ncc(-c2ccc(-c3ccc(-c4cnc([C@@H]5CCCN5C(=O)[C@@H](c5ccccc5)N(C)C)[nH]4)cc3)cc2)[nH]1` [Example 92, methyl ((1S)-2-((2S)-2-(5-(4′-(2-((2S)-1-((2R)-2-(dimethylamino)-2-phenylacetyl)-2-pyrrolidinyl)-1H-imidazol-5-yl)-4-biphenylyl)-1H-imidazol-2-yl)-1-pyrrolidinyl)-1-methyl-2-oxoethyl)carbamate], the EC50 fell in the range of 0.001 to 0.999 nM.

As to `CN(C)[C@@H](C(=O)N1CCC[C@H]1c1ncc(-c2ccc(-c3ccc(-c4cnc([C@@H]5CCCN5C(=O)N5CCOCC5)[nH]4)cc3)cc2)[nH]1)c1ccccc1` [Example 93, (1R)-N,N-dimethyl-2-((2S)-2-(5-(4′-(2-((2S)-1-(4-morpholinylcarbonyl)-2-pyrrolidinyl)-1H-imidazol-5-yl)-4-biphenylyl)-1H-imidazol-2-yl)-1-pyrrolidinyl)-2-oxo-1-phenylethanamine], the EC50 is 0.001 to 0.999 nM.

As for `CN(C)[C@@H](C(=O)N1CCC[C@H]1c1ncc(-c2ccc(-c3ccc(-c4cnc([C@@H]5CCCN5C(=O)N5CCCC5)[nH]4)cc3)cc2)[nH]1)c1ccccc1` [Example 94, (1R)-N,N-dimethyl-2-oxo-1-phenyl-2-((2S)-2-(5-(4′-(2-((2S)-1-(1-pyrrolidinylcarbonyl)-2-pyrrolidinyl)-1H-imidazol-5-yl)-4-biphenylyl)-1H-imidazol-2-yl)-1-pyrrolidinyl)ethanamine], the EC50 was in the range of 0.001 to 0.999 nM.

For the compound `CN(C)[C@@H](C(=O)N1CCC[C@H]1c1ncc(-c2ccc(-c3ccc(-c4cnc([C@@H]5CCCN5C(=O)[C@@](C)(O)c5ccccc5F)[nH]4)cc3)cc2)[nH]1)c1ccccc1` [Example 94-1, (2S)-1-((2S)-2-(5-(4′-(2-((2S)-1-((2R)-2-(dimethylamino)-2-phenylacetyl)-2-pyrrolidinyl)-1H-imidazol-5-yl)-4-biphenylyl)-1H-imidazol-2-yl)-1-pyrrolidinyl)-2-(2-fluorophenyl)-1-oxo-2-propanol], the EC50 is 0.001 to 0.999 nM.

With `CN(C)[C@@H](C(=O)N1CCC[C@H]1c1ncc(-c2ccc(-c3ccc(-c4cnc([C@@H]5CCCN5C(=O)[C@H]5CCC(=O)N5)[nH]4)cc3)cc2)[nH]1)c1ccccc1` [Example 94-2, (5R)-5-(((2S)-2-(5-(4′-(2-((2S)-1-((2R)-2-(dimethylamino)-2-phenylacetyl)-2-pyrrolidinyl)-1H-imidazol-5-yl)-4-biphenylyl)-1H-imidazol-2-yl)-1-pyrrolidinyl)carbonyl)-2-pyrrolidinone], the 50% effective concentration (EC50) lay within 1 to 99 nM.

With `CN(C)[C@@H](C(=O)N1CCC[C@H]1c1ncc(-c2ccc(-c3ccc(-c4cnc([C@@H]5CCCN5C(=O)[C@@H](c5ccccc5)N5CCC(C)(O)CC5)[nH]4)cc3)cc2)[nH]1)c1ccccc1` [Example 94-3, 1-((1R)-2-((2S)-2-(5-(4′-(2-((2S)-1-((2R)-2-(dimethylamino)-2-phenylacetyl)-2-pyrrolidinyl)-1H-imidazol-5-yl)-4-biphenylyl)-1H-imidazol-2-yl)-1-pyrrolidinyl)-2-oxo-1-phenylethyl)-4-methyl-4-piperidinol], the EC50 is 0.001 to 0.999 nM.
